Measured values from patent US20110091587A1, “PHASE II DETOXIFICATION AND ANTIOXIDANT ACTIVITY” (JOSLIN DIABETES CENTER, INC., priority 2007, published 2011).

Tested on: GCS-1::GFP
Experiment: GCS-1::GFP reporter expression in the intestine of transgenic worms
Assay type: in vivo, C. elegans
Description: A nucleic acid encoding the GCS-1 promoter (as described in An and Blackwell, 2003, Genes & Dev., 17, 1882-1893) was fused with a sequence encoding green fluorescent protein (GFP) to prepare a reporter construct (gcs-1::GFP) using standard molecular biology techniques. This fusion construct gene was transferred into C. elegans (An and Blackwell, 2003, Genes & Dev., 17, 1882-1893; Mello, et al., EMBO J. 1991. 10(12):3959-70), and the obtained transformed C. elegans were used in the experiment. Under normal, less oxidative stress conditions, the gcs-1::GFP construct is expressed in the pharynx area and ASI of C. elegans, where fluorescence emission of GFP can be measured.
Experiments were conducted to study the influence of the various extracts prepared in Example 1 on expression of the GCS-1::GFP reporter construct (described in Example 2) in C. elegans, following the method according to An and Blackwell, 2003, Genes & Dev., 17, 1882-1893.
Before each experiment, approximately 20 L4 stage worms carrying the GCS-1::GFP reporter construct transgene were picked to NGM plates (a type of agar media, see Brenner, Genetics, 1974 May; 77(1):71-94), containing OP50 bacteria (an E. coli strain, food for C. elegans), and were allowed to grow for 2 to 3 days. The worms were transferred together with a saline medium (M9) for treatment with the test materials to a microcentrifuge tube by flooding the NGM plate surface with the saline medium (M9). The microcentrifuge tube was then centrifuged, and a supernatant was removed. The same procedure was repeated again to wash the worms. This washing removed the bacteria which had been given as food.
Once the worms were washed, they were added for incubation in the specified test materials at the specified concentrations for the following amounts of time. Initially, incubation time was 30 minutes, and was later extended to include 60, 90, and 120 minutes. After treatment for said given times, the worms were washed in M9 at least twice, transferred back to an NGM plate containing bacteria, and allowed to recover for about 30 minutes. The worms were then mounted on slides, and scored for GFP expression levels under a microscope. GFP expression levels in the intestines of each worm were evaluated based on three scores; high, medium, and low expressions. A high score was given for worms with GFP expression through out the intestine. GFP expression midway up the intestine was scored medium. A low score was given to worms with very little or no GFP expression in their intestine. […]

[1] = comparison of GCS-1::GFP, Δ2 and Δ2mut3 worms

## C[S+]([O-])CCCCN=C=S (stereo not shown) [sulforaphane]
[1]
  regulation of GCS-1::GFP expression by SKN-1: not partially regulated by SKN-1
  site of GCS-1::GFP expression: about half of GCS-1::GFP expression was seen in the pharynx
Sulforaphane 1 mg/mL, after 30, 60 or 90 minutes of incubation
  effect on GCS-1::GFP expression: no effect was seen
Sulforaphane 1 mg/mL, longer incubation
  incubation time at which effect was first seen: 6 h
